From patent publication US20190185417A1, “NOVEL ANTIBIOTICS” (priority 2016, published 2019)

Tests used:
Test in all cases: MIC by broth microdilution
Format in all cases: cell-based
Details in all cases: Table 2, Example 2
[1] = tested on: Haemophilus influenzae (ATCC 49247)
Protocol: (§1) The antibacterial potency of the test article(s) was measured using the in vitro broth microdilution assay under assay conditions described by the Clinical and Laboratory Standards Institute. […] The test substance was dissolved in 100% DMSO (unless stated below), suspended completely by sonication or vortexing, diluted by 2-fold serial titrations in the same vehicle, for a total of 11 test concentrations. A 4 μL aliquot of each dilution was added to 196 μL of broth medium seeded with the organism suspension in wells of a 96 well plate (bacterial count: 2−8×10^5 colony forming units/mL final). The final volume was 200 μL in each well and the final DMSO concentration was 2 percent. Following incubation, the test plates were visually examined and wells were scored for growth or complete growth inhibition to define the minimum inhibitory concentration. Each test substance was evaluated in duplicate and the results below are the duplicate test values. Vehicle-control and an active reference agent were used as blank and positive controls, respectively.

[2] = tested on: Pseudomonas aeruginosa, MDR (NTUH-974)
Protocol: as §1, with “DMSO,” for “DMSO (unless stated below),”, “incubation for 1 day at 36° C.,” for “incubation,”, “were reported as” for “below are”, “respectively. Microorganisms tested were Acinetobacter baumannii (ATCC 17978), Enterococcus faecalis (ATCC 29212), Enterococcus faecium VanA (ATCC 700221), Escherichia coli (ATCC 25922), Escherichia coli efflux defective DEL-tolC (JW5503), Heamophilus influenzae (ATCC 49247), Klebsiella pneumoniae (ATCC 43816), Pseudomonas aeruginosa (ATCC 27853), Pseudomonas aeruginosa MDR (NTUH-974), Staphylococcus aureus (ATCC 29213), Staphylococcus aureus MRSA (ATCC 33591) and Streptococcous pneumoniae (ATCC 46919). H. influenzae was grown in Haemophilus Test Medium and S. pneumoniae was grown in cation adjusted Muller-Hinton Broth II with 5% lysed horse blood. All other microorganisms were grown in cation adjusted Muller-Hinton Broth II.” for “respectively.”
as §1

[3] = tested on: Pseudomonas aeruginosa (ATCC 27853)
Protocol: as §1, with “DMSO,” for “DMSO (unless stated below),”, “incubation for 1 day at 36° C.,” for “incubation,”, “were reported as” for “below are”, “respectively. Microorganisms tested were Acinetobacter baumannii (ATCC 17978), Enterococcus faecalis (ATCC 29212), Enterococcus faecium VanA (ATCC 700221), Escherichia coli (ATCC 25922), Escherichia coli efflux defective DEL-tolC (JW5503), Heamophilus influenzae (ATCC 49247), Klebsiella pneumoniae (ATCC 43816), Pseudomonas aeruginosa (ATCC 27853), Pseudomonas aeruginosa MDR (NTUH-974), Staphylococcus aureus (ATCC 29213), Staphylococcus aureus MRSA (ATCC 33591) and Streptococcous pneumoniae (ATCC 46919). H. influenzae was grown in Haemophilus Test Medium and S. pneumoniae was grown in cation adjusted Muller-Hinton Broth II with 5% lysed horse blood. All other microorganisms were grown in cation adjusted Muller-Hinton Broth II.” for “respectively.”
as §1

[4] = tested on: Klebsiella pneumoniae (ATCC 43816)
Protocol: as §1, with “DMSO,” for “DMSO (unless stated below),”, “incubation for 1 day at 36° C.,” for “incubation,”, “were reported as” for “below are”, “respectively. Microorganisms tested were Acinetobacter baumannii (ATCC 17978), Enterococcus faecalis (ATCC 29212), Enterococcus faecium VanA (ATCC 700221), Escherichia coli (ATCC 25922), Escherichia coli efflux defective DEL-tolC (JW5503), Heamophilus influenzae (ATCC 49247), Klebsiella pneumoniae (ATCC 43816), Pseudomonas aeruginosa (ATCC 27853), Pseudomonas aeruginosa MDR (NTUH-974), Staphylococcus aureus (ATCC 29213), Staphylococcus aureus MRSA (ATCC 33591) and Streptococcous pneumoniae (ATCC 46919). H. influenzae was grown in Haemophilus Test Medium and S. pneumoniae was grown in cation adjusted Muller-Hinton Broth II with 5% lysed horse blood. All other microorganisms were grown in cation adjusted Muller-Hinton Broth II.” for “respectively.”
as §1

[5] = tested on: Escherichia coli (ATCC 25922)
Protocol: as §1, with “DMSO,” for “DMSO (unless stated below),”, “incubation for 1 day at 36° C.,” for “incubation,”, “were reported as” for “below are”, “respectively. Microorganisms tested were Acinetobacter baumannii (ATCC 17978), Enterococcus faecalis (ATCC 29212), Enterococcus faecium VanA (ATCC 700221), Escherichia coli (ATCC 25922), Escherichia coli efflux defective DEL-tolC (JW5503), Heamophilus influenzae (ATCC 49247), Klebsiella pneumoniae (ATCC 43816), Pseudomonas aeruginosa (ATCC 27853), Pseudomonas aeruginosa MDR (NTUH-974), Staphylococcus aureus (ATCC 29213), Staphylococcus aureus MRSA (ATCC 33591) and Streptococcous pneumoniae (ATCC 46919). H. influenzae was grown in Haemophilus Test Medium and S. pneumoniae was grown in cation adjusted Muller-Hinton Broth II with 5% lysed horse blood. All other microorganisms were grown in cation adjusted Muller-Hinton Broth II.” for “respectively.”
as §1

[6] = tested on: Acinetobacter baumannii (ATCC 17978)
Protocol: as §1, with “DMSO,” for “DMSO (unless stated below),”, “incubation for 1 day at 36° C.,” for “incubation,”, “were reported as” for “below are”, “respectively. Microorganisms tested were Acinetobacter baumannii (ATCC 17978), Enterococcus faecalis (ATCC 29212), Enterococcus faecium VanA (ATCC 700221), Escherichia coli (ATCC 25922), Escherichia coli efflux defective DEL-tolC (JW5503), Heamophilus influenzae (ATCC 49247), Klebsiella pneumoniae (ATCC 43816), Pseudomonas aeruginosa (ATCC 27853), Pseudomonas aeruginosa MDR (NTUH-974), Staphylococcus aureus (ATCC 29213), Staphylococcus aureus MRSA (ATCC 33591) and Streptococcous pneumoniae (ATCC 46919). H. influenzae was grown in Haemophilus Test Medium and S. pneumoniae was grown in cation adjusted Muller-Hinton Broth II with 5% lysed horse blood. All other microorganisms were grown in cation adjusted Muller-Hinton Broth II.” for “respectively.”
as §1

[7] = tested on: Escherichia coli, efflux defective DEL-tolC (JW5503)
Protocol: as §1, with “DMSO,” for “DMSO (unless stated below),”, “incubation for 1 day at 36° C.,” for “incubation,”, “were reported as” for “below are”, “respectively. Microorganisms tested were Acinetobacter baumannii (ATCC 17978), Enterococcus faecalis (ATCC 29212), Enterococcus faecium VanA (ATCC 700221), Escherichia coli (ATCC 25922), Escherichia coli efflux defective DEL-tolC (JW5503), Heamophilus influenzae (ATCC 49247), Klebsiella pneumoniae (ATCC 43816), Pseudomonas aeruginosa (ATCC 27853), Pseudomonas aeruginosa MDR (NTUH-974), Staphylococcus aureus (ATCC 29213), Staphylococcus aureus MRSA (ATCC 33591) and Streptococcous pneumoniae (ATCC 46919). H. influenzae was grown in Haemophilus Test Medium and S. pneumoniae was grown in cation adjusted Muller-Hinton Broth II with 5% lysed horse blood. All other microorganisms were grown in cation adjusted Muller-Hinton Broth II.” for “respectively.”
as §1

Measured: MIC

N#Cc1ccc(CCc2cc(CCc3ccc(C#N)cc3)cc(CCc3ccc(C#N)cc3)c2)cc1 [Compound 4 (TSB064)]
>32.0 µg/mL: [1] | [2] | [3] | [4] | [5] | [6] | [7]

CN(C)C(=O)c1ccc(CCc2cc(CCc3ccc(C(=O)N(C)C)cc3)cc(CCc3ccc(C(=O)N(C)C)cc3)c2)cc1 [Compound 5 (TSB032)]
>32.0 µg/mL: [1] | [2] | [3] | [4] | [5] | [6] | [7]

NC(=O)c1ccc(CCc2cc(CCc3ccc(C(N)=O)cc3)cc(CCc3ccc(C(N)=O)cc3)c2)cc1 [Compound 6 (TSB030)]
>32.0 µg/mL: [1] | [2] | [3] | [4] | [5] | [6] | [7]

O=[N+]([O-])c1ccc(CCc2cc(CCc3ccc([N+](=O)[O-])cc3)cc(CCc3ccc([N+](=O)[O-])cc3)c2)cc1 [Compound 8 (TSB036)]
>32.0 µg/mL: [1] | [2] | [3] | [4] | [5] | [6] | [7]
